Legend:
Type in all cases: physicochemical
[1] = Solubility of the crystal in hexane; conditions: n-hexane, temperature of 25° C.
Experimental: (§1) The inside of a 300 mL reaction flask (made of heat resistant glass) was replaced with nitrogen, and thereafter 40 g of commercially available reduced coenzyme Q10 (produced by Kaneka Corporation, conventionally known reduced coenzyme Q10 crystal) and 60 g of n-hexane were charged thereto and warmed to 40° C. with stirring to completely dissolve the reduced coenzyme Q10 in n-hexane. The solution was cooled to 25° C. at a cooling rate of 10° C./hour, then kept at 25° C. for 96 hours while being continuously stirred, and subjected to filtration and drying (drying under reduced pressure, 20 to 40° C.) to provide a crystal. From the result of analysis by DSC, the crystal was confirmed to have an endothermic peak indicating melting at 54.2° C. during temperature rise at a rate of 5° C./min, and an endothermic peak indicating melting at 51.6° C. during temperature rise at a rate of 1° C./min. In addition, as the result of analysis by powder X-ray diffraction, characteristic peaks at diffraction angles (2θ±0.2°) of 11.50°, 18.26°, 19.30°, 22.30°, 23.00° and 33.14° were observed as shown in FIG. 1. […] From the above analysis results, it was confirmed that the reduced coenzyme Q10 crystal obtained in the present Example was in a different crystal form from the conventionally known reduced coenzyme Q10 crystal. The solubility of the resulting crystal in hexane was measured, and found to be 9% by weight at a temperature of 25° C.

[2] = Sticking property due to electrostatic charge during pulverization by a mortar; conditions: collection by stainless spatula
Experimental: as §1, with “The solubility of the resulting crystal in hexane was measured, and found to be 9% by weight at a temperature of 25° C.” left out

[3] = Solubility of the crystal in ethanol; conditions: temperature of 30° C.

| Compound | solubility in hexane [1] | sticking property due to electrostatic charge [2] | solubility in ethanol [3] |
| --- | --- | --- | --- |
| COc1c(O)c(C)c(C/C=C(\C)CC/C=C(\C)CC/C=C(\C)CC/C=C(\C)CC/C=C(\C)CC/C=C(\C)CC/C=C(\C)CC/C=C(\C)CC/C=C(\C)CCC=C(C)C)c(O)c1OC [Comparative Example 1, reduced coenzyme Q10] | 36.5 % by weight | exhibited remarkable sticking property | – |
| COc1c(O)c(C)c(C/C=C(\C)CC/C=C(\C)CC/C=C(\C)CC/C=C(\C)CC/C=C(\C)CC/C=C(\C)CC/C=C(\C)CC/C=C(\C)CC/C=C(\C)CCC=C(C)C)c(O)c1OC [Example 1, reduced coenzyme Q10] | 9 % by weight | did not exhibit sticking property | – |
| COc1c(O)c(C)c(C/C=C(\C)CC/C=C(\C)CC/C=C(\C)CC/C=C(\C)CC/C=C(\C)CC/C=C(\C)CC/C=C(\C)CC/C=C(\C)CC/C=C(\C)CCC=C(C)C)c(O)c1OC [conventionally known reduced coenzyme Q10 crystal] | ≥ 30 % by weight | – | ≥ 4 % by weight |
| COc1c(O)c(C)c(C/C=C(\C)CC/C=C(\C)CC/C=C(\C)CC/C=C(\C)CC/C=C(\C)CC/C=C(\C)CC/C=C(\C)CC/C=C(\C)CC/C=C(\C)CCC=C(C)C)c(O)c1OC [reduced coenzyme Q10 crystal of the present invention] | ≤ 15 % by weight | – | less than 4 % by weight |

Reference: US9556098B2, “Reduced coenzyme Q10 crystal having excellent stability” (KANEKA CORPORATION, priority 2011, dated 2017)
